# Measurements: patent publication US7011814B2, “Systems, methods and devices for in vivo monitoring of a localized response via a radiolabeled analyte in a subject” (Sicel Technologies, Inc., priority 2001, dated 2006)
# Tests used:
# [1] = cited from earlier work
# [2] = in vivo monitoring of radiolabeled analyte uptake in tissue with subcutaneous fiber optic beta radiation probes
# Protocol: The labeled glucose can be injected into the tail vein of test animals (such as rats) in a single bolus.
# FIG. 11A illustrates a response profile graph (an integrated counts (above threshold) over time profile) taken over a monitored time period of about 85 minutes (study #2). The counts were taken on a thirty seconds/sample count time frame. In this experiment, a fiber optic probe was positioned subcutaneously in “normal” or non-cancerous tissue in the back of a Fisher 344 rat. A dose of 50 μCi of ^14C-2DG was injected in the tail vein. The data was monitored for about 85 minutes. […] The initial portion of the graph has values that represent “baseline” or dark current.
# FIGS. 11B-11C illustrate graphs of data obtained using two probes, each placed subcutaneously in normal tissue of a 190 gram female Fisher 344 rat, one placed in the flank/inguinal and the other in the scapula (study #4). […] In this experiment, a bolus of 200 μCi of ^14C 2-DG was administered via intra-peritoneal (IP) injection. The data was monitored for about 96 minutes.
molecule,measurement,setting,value
"O=c1[nH]cc(F)c(=O)[nH]1 [5-FU, 5-Fluorouracil]",lesions in which enhanced trapping was noted,[1]; PET with O-15 labeled water and 5-[F-18]FU,70%
O=c1[nH]cc([18F])c(=O)[nH]1 [5-[F-18]FU],"liver parenchyma uptake at the end of the acquisition time, relative to the maximum","[1]; PET, 120-minute acquisition time",25%
same,uptake in the metastases,"[1]; PET, during the 120-minute acquisition time",low and relatively constant
same,mean uptake in metastases relative to liver uptake at the same time interval,"[1]; PET, liver metastases",one-third
same,time of highest uptake in normal liver parenchyma after onset of the infusion of the tracer,"[1]; PET, normal liver parenchyma",about 30 minutes
C-14 labeled 2-deoxyglucose [^14C-2DG],time from injection at which counts reached a plateau,"[2]; 50 μCi injected in tail vein, probe subcutaneous in normal tissue in back of Fisher 344 rat, study #2, FIG. 11A",about 10 minutes
same,concentration in scapula region compared to flank region,"[2]; 200 μCi bolus intra-peritoneal, two probes subcutaneous in normal tissue, 190 gram female Fisher 344 rat, monitored about 96 minutes, study #4, FIG. 11B",higher concentrations were obtained in the scapula region compared to the flank region
same,time range in which peak or maxima point of concentration is reached (observed points),"[2]; 200 μCi intra-peritoneal, flank/inguinal normal tissue probe, study #4, FIG. 11C",20 to 50 min
